According to patent US5599791A, “Amides of antibiotic GE 2270 factors” (Gruppo Lepetit SPA, priority 1991, dated 1997):

What was measured:
[1] = test system: Haemophilus Influenzae type B; test: MIC, microbroth dilution; type: cell-based; details: brain heart infusion broth +1% Supplement C, 48 h, 37° C., 5% CO2
Protocol: (§1) MIC for Propionibacterium aches, and Bacteroides fragilis are determined by agar dilution (inocula 10^4 /10^5 CFU/spot). MIC for other organisms are determined by microbroth dilution (inocula 10^4 to 10^5 CFU/ml). Incubation times are 18-24 h, except for Haemophilus influenzae, P. acnes, B. fragilis (48 h). All organisms are incubated at 37° C.; H. influenzae is incubated in a 5% CO2 atmosphere, anaerobes in an anaerobic gas mixture. Media used are: Iso-Sensitest broth (Oxoid) (Staphylococci, Streptococcus faecalis, Escherichia coli, Proteus vulgaris; brain heart infusion broth (Difco)+1% Supplement C (Difco) (H. influenzae); The minimal inhibitory concentrations (MIC, microgram/ml) for some microorganisms are reported below in Table VII.

[2] = test system: Strep. pneumoniae L44 UC41; test: MIC, microbroth dilution; type: cell-based; details: inocula 10^4 to 10^5 CFU/ml, 18-24 h, 37° C.
Protocol: as §1

[3] = test system: Staph. aureus L165 Tour; test: MIC, microbroth dilution; type: cell-based; details: inocula 10^4 to 10^5 CFU/ml, Iso-Sensitest broth, 18-24 h, 37° C.
Protocol: as §1

[4] = test system: Staph. epidermidis L147 ATCC 12228; test: MIC, microbroth dilution; type: cell-based; details: inocula 10^4 to 10^5 CFU/ml, Iso-Sensitest broth, 18-24 h, 37° C.
Protocol: as §1

[5] = test system: Staph. haemolyticus L602; test: MIC, microbroth dilution; type: cell-based; details: inocula 10^4 to 10^5 CFU/ml, Iso-Sensitest broth, 18-24 h, 37° C.
Protocol: as §1

[6] = test system: Strep. faecalis L149 ATCC 7080; test: MIC, microbroth dilution; type: cell-based, Streptococcus faecalis; details: inocula 10^4 to 10^5 CFU/ml, Iso-Sensitest broth, 18-24 h, 37° C.
Protocol: as §1

[7] = test system: Bact. fragilis L1010 ATCC 23745; test: MIC, agar dilution; type: cell-based, Bacteroides fragilis; details: inocula 10^4 /10^5 CFU/spot, 48 h, 37° C., anaerobic gas mixture
Protocol: as §1

[8] = test system: Prop. acnes L1014 ATCC 6919; test: MIC, agar dilution; type: cell-based, P. acnes; details: inocula 10^4 /10^5 CFU/spot, 48 h, 37° C., anaerobic gas mixture
Protocol: as §1

[9] = test system: Prot. vulgaris ATCC 881; test: MIC, microbroth dilution; type: cell-based, Proteus vulgaris; details: inocula 10^4 to 10^5 CFU/ml, Iso-Sensitest broth, 18-24 h, 37° C.
Protocol: as §1

[10] = test system: Esch. coli L47 SKF 12140; test: MIC, microbroth dilution; type: cell-based, Escherichia coli; details: inocula 10^4 to 10^5 CFU/ml, Iso-Sensitest broth, 18-24 h, 37° C.
Protocol: as §1

| SMILES | MIC [1] | MIC [2] | MIC [3] | MIC [4] | MIC [6] | MIC [7] | MIC [8] | MIC [9] | MIC [10] | MIC [5] |
| --- | --- | --- | --- | --- | --- | --- | --- | --- | --- | --- |
| CNC(=O)CC1NC(=O)c2nc(sc2COC)C(C(C)C)NC(=O)c2csc(n2)-c2ccc(-c3nc(C(=O)NC(CCCN)C(=O)O)cs3)nc2-c2csc(n2)-c2csc(n2)C(C(O)c2ccccc2)NC(=O)CNC(=O)c2nc1sc2C.O=C(O)C(F)(F)F (stereo not shown) [Compound 2] | > 128 microgram/ml | > 128 microgram/ml | 0.13 microgram/ml | 0.25 microgram/ml | 0.06 microgram/ml | > 128 microgram/ml | 0.06 microgram/ml | > 128 microgram/ml | > 128 microgram/ml | 16 microgram/ml |
| CNC(=O)CC1NC(=O)c2nc(sc2COC)C(C(C)C)NC(=O)c2csc(n2)-c2ccc(-c3nc(C(=O)NC(CC(C)C)C(=O)O)cs3)nc2-c2csc(n2)-c2csc(n2)C(C(O)c2ccccc2)NC(=O)CNC(=O)c2nc1sc2C (stereo not shown) [Compound 6] | 32 microgram/ml | 2 microgram/ml | < 0.13 microgram/ml | 1 microgram/ml | < 0.13 microgram/ml | > 128 microgram/ml | < 0.13 microgram/ml | > 128 microgram/ml | > 128 microgram/ml | 1 microgram/ml |
| CNC(=O)CC1NC(=O)c2nc(sc2COC)C(C(C)C)NC(=O)c2csc(n2)-c2ccc(-c3nc(C(=O)NC(Cc4ccccc4)C(=O)O)cs3)nc2-c2csc(n2)-c2csc(n2)C(C(O)c2ccccc2)NC(=O)CNC(=O)c2nc1sc2C (stereo not shown) [Compound 7] | 128 microgram/ml | 4 microgram/ml | 0.25 microgram/ml | 0.5 microgram/ml | > 0.13 microgram/ml | > 128 microgram/ml | < 0.13 microgram/ml | > 128 microgram/ml | > 128 microgram/ml | 4 microgram/ml |
| CNC(=O)CC1NC(=O)c2nc(sc2COC)C(C(C)C)NC(=O)c2csc(n2)-c2ccc(-c3nc(C(=O)NC(CCSC)C(=O)O)cs3)nc2-c2csc(n2)-c2csc(n2)C(C(O)c2ccccc2)NC(=O)CNC(=O)c2nc1sc2C (stereo not shown) [Compound 8] | 64 microgram/ml | 4 microgram/ml | 0.25 microgram/ml | 2 microgram/ml | 0.25 microgram/ml | 32 microgram/ml | < 0.13 microgram/ml | > 128 microgram/ml | > 128 microgram/ml | 2 microgram/ml |
| CNC(=O)CC1NC(=O)c2nc(sc2COC)C(C(C)C)NC(=O)c2csc(n2)-c2ccc(-c3nc(C(=O)NCC(=O)N4CCCC4C(N)=O)cs3)nc2-c2csc(n2)-c2csc(n2)C(C(O)c2ccccc2)NC(=O)CNC(=O)c2nc1sc2C (stereo not shown) [Compound 14] | > 128 microgram/ml | > 128 microgram/ml | 0.06 microgram/ml | 0.13 microgram/ml | 0.06 microgram/ml | > 128 microgram/ml | 0.03 microgram/ml | > 128 microgram/ml | > 128 microgram/ml | 0.25 microgram/ml |
| CNC(=O)CC1NC(=O)c2nc(sc2COC)C(C(C)C)NC(=O)c2csc(n2)-c2ccc(-c3nc(C(=O)NCCCCCCCC(=O)O)cs3)nc2-c2csc(n2)-c2csc(n2)C(C(O)c2ccccc2)NC(=O)CNC(=O)c2nc1sc2C (stereo not shown) [Compound 20] | > 128 microgram/ml | 2 microgram/ml | 0.25 microgram/ml | 0.25 microgram/ml | < 0.13 microgram/ml | > 128 microgram/ml | 0.03 microgram/ml | > 128 microgram/ml | > 128 microgram/ml | 0.25 microgram/ml |
| CNC(=O)CC1NC(=O)c2nc(sc2COC)C(C(C)C)NC(=O)c2csc(n2)-c2ccc(-c3nc(C(=O)NCCCN)cs3)nc2-c2csc(n2)-c2csc(n2)C(C(O)c2ccccc2)NC(=O)CNC(=O)c2nc1sc2C.O=C(O)C(F)(F)F (stereo not shown) [Compound 36] | > 128 microgram/ml | 4 microgram/ml | 0.13 microgram/ml | 0.13 microgram/ml | 0.13 microgram/ml | > 128 microgram/ml | 0.06 microgram/ml | > 128 microgram/ml | > 128 microgram/ml | 0.13 microgram/ml |

More lines, main results first:

| MIC [1] | MIC [2] | MIC [3] | MIC [4] | MIC [6] | MIC [7] | MIC [8] | MIC [9] | MIC [10] | SMILES | MIC [5] |
| --- | --- | --- | --- | --- | --- | --- | --- | --- | --- | --- |
| 8 microgram/ml | 8 microgram/ml | 0.5 microgram/ml | 1 microgram/ml | 0.25 microgram/ml | 8 microgram/ml | < 0.13 microgram/ml | > 128 microgram/ml | > 128 microgram/ml | CNC(=O)CC1NC(=O)c2nc(sc2COC)C(C(C)C)NC(=O)c2csc(n2)-c2ccc(-c3nc(C(=O)NCC(=O)O)cs3)nc2-c2csc(n2)-c2csc(n2)C(C(O)c2ccccc2)NC(=O)CNC(=O)c2nc1sc2C (stereo not shown) [Compound 1] | 4 microgram/ml |
| 2 microgram/ml | 1 microgram/ml | 0.25 microgram/ml | 0.25 microgram/ml | 0.13 microgram/ml | 2 microgram/ml | 0.016 microgram/ml | > 128 microgram/ml | > 128 microgram/ml | CNC(=O)CC1NC(=O)c2nc(sc2COC)C(C(C)C)NC(=O)c2csc(n2)-c2ccc(-c3nc(C(=O)NCCCC(=O)O)cs3)nc2-c2csc(n2)-c2csc(n2)C(C(O)c2ccccc2)NC(=O)CNC(=O)c2nc1sc2C (stereo not shown) [Compound 18] | 1 microgram/ml |
| 2 microgram/ml | 0.25 microgram/ml | 0.06 microgram/ml | 0.06 microgram/ml | 0.06 microgram/ml | 4 microgram/ml | 0.008 microgram/ml | > 128 microgram/ml | > 128 microgram/ml | CNC(=O)CC1NC(=O)c2nc(sc2COC)C(C(C)C)NC(=O)c2csc(n2)-c2ccc(-c3nc(C(=O)NCCCCCC(=O)O)cs3)nc2-c2csc(n2)-c2csc(n2)C(C(O)c2ccccc2)NC(=O)CNC(=O)c2nc1sc2C (stereo not shown) [Compound 19] | 0.25 microgram/ml |
| > 128 microgram/ml | 1 microgram/ml | 0.5 microgram/ml | 0.5 microgram/ml | 0.25 microgram/ml | > 128 microgram/ml | 0.13 microgram/ml | > 128 microgram/ml | > 128 microgram/ml | CNC(=O)CC1NC(=O)c2nc(sc2COC)C(C(C)C)NC(=O)c2csc(n2)-c2ccc(-c3nc(C(=O)NCCN(C)C)cs3)nc2-c2csc(n2)-c2csc(n2)C(C(O)c2ccccc2)NC(=O)CNC(=O)c2nc1sc2C (stereo not shown) [Compound 32] | 0.5 microgram/ml |
| > 128 microgram/ml | > 128 microgram/ml | 0.13 microgram/ml | 0.13 microgram/ml | 0.06 microgram/ml | > 128 microgram/ml | 0.004 microgram/ml | > 128 microgram/ml | > 128 microgram/ml | CNC(=O)CC1NC(=O)c2nc(sc2COC)C(C(C)C)NC(=O)c2csc(n2)-c2ccc(-c3nc(C(N)=O)cs3)nc2-c2csc(n2)-c2csc(n2)C(C(O)c2ccccc2)NC(=O)CNC(=O)c2nc1sc2C (stereo not shown) [Compound 35] | 0.5 microgram/ml |
| > 128 microgram/ml | > 128 microgram/ml | 0.03 microgram/ml | 0.06 microgram/ml | 0.06 microgram/ml | > 128 microgram/ml | 0.004 microgram/ml | > 128 microgram/ml | > 128 microgram/ml | CNC(=O)CC1NC(=O)c2nc(sc2COC)C(C(C)C)NC(=O)c2csc(n2)-c2ccc(-c3nc(C(=O)NCC=O)cs3)nc2-c2csc(n2)-c2csc(n2)C(C(O)c2ccccc2)NC(=O)CNC(=O)c2nc1sc2C (stereo not shown) [Compound 37] | 0.13 microgram/ml |
| 1 microgram/ml | 1 microgram/ml | 0.25 microgram/ml | 0.25 microgram/ml | ≤ 0.13 microgram/ml | 4 microgram/ml |  | > 128 microgram/ml | > 128 microgram/ml | CNC(=O)CC1NC(=O)c2nc(sc2COC)C(C(C)C)NC(=O)c2csc(n2)-c2ccc(-c3nc(C(=O)NCCCC=CC(=O)O)cs3)nc2-c2csc(n2)-c2csc(n2)C(C(O)c2ccccc2)NC(=O)CNC(=O)c2nc1sc2C (stereo not shown) [Compound 40] | 1 microgram/ml |
